In PubChem BioAssay (NCI):
Several values for one entry are separate records, joined by “and”; a condition that tells them apart may be missing. Identical values can stand only once.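 All cell lines were grown in 96-well plates and treated with compound for 48 hours. GI50 = concentration required for 50% inhibition of growth. TGI marks complete inhibition of growth.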

Assays:
Assay in all cases: NCI anticancer screen, dose series, 48 h
[1] = test system: SK-MEL-28 melanoma
[2] = test system: MOLT-4 leukemia
[3] = test system: SW-620 colon
[4] = test system: UACC-257 melanoma
[5] = test system: HS 578T breast
[6] = test system: T-47D breast
[7] = test system: HOP-92 NSCLC
[8] = test system: COLO 205 colon
[9] = test system: A549 NSCLC
[10] = test system: RPMI-8226 leukemia
[11] = test system: HL-60(TB) leukemia

Question: `C=CC(=O)N1C/C(=C\c2ccc(N(C)C)cc2)C(=O)/C(=C/c2ccc(N(C)C)cc2)C1` was tested. Which TGI [1] did it give?
Answer: Its TGI is over 100 µM.

Question: What about the TGI [2] of the same compound?
Answer: The TGI was over 100 µM.

Question: And the TGI [3]?
Answer: Its TGI is over 100 µM.

Question: What about the TGI [4] of the same compound?
Answer: Its TGI is over 100 µM.

Question: What about the TGI [5] of the same compound?
Answer: Its TGI is over 100 µM.

Question: What about the TGI [6] of the same compound?
Answer: Its TGI is over 100 µM.

Question: What about the TGI [7] of the same compound?
Answer: Its TGI is over 100 µM.

Question: And the TGI [8]?
Answer: Its TGI is over 100 µM.

Question: And the TGI [9]?
Answer: The TGI was over 100 µM.

Question: For `CC1=NOC2(C1)/C(=N/O)CCC/C2=N\O` (centres undefined), which TGI [1] is on record?
Answer: Its TGI is over 100 µM.

Question: What about the TGI [2] of the same compound?
Answer: Its TGI is over 100 µM.

Question: What about the TGI [10] of the same compound?
Answer: The TGI was over 100 µM.

Question: And the TGI [3]?
Answer: The TGI was over 100 µM.

Question: And the TGI [4]?
Answer: Its TGI is over 100 µM.

Question: And the TGI [5]?
Answer: Its TGI is over 100 µM.

Question: What about the TGI [6] of the same compound?
Answer: Its TGI is over 100 µM.

Question: And the TGI [8]?
Answer: The TGI was over 100 µM.

Question: What about the TGI [9] of the same compound?
Answer: The TGI was over 100 µM.

Question: With `COc1cc(OC)c2c(O)cc(CC(C)O)cc2c1` (centres undefined) as the compound, how does the TGI [1] read?
Answer: The TGI was over 100 µM.

Question: And the TGI [2]?
Answer: Its TGI is over 100 µM.

Question: And the TGI [10]?
Answer: The TGI was over 100 µM.

Question: What about the TGI [3] of the same compound?
Answer: Its TGI is over 100 µM.

Question: What about the TGI [11] of the same compound?
Answer: The TGI was over 100 µM.

Question: And the TGI [4]?
Answer: The TGI was over 100 µM.

Question: And the TGI [7]?
Answer: Its TGI is over 100 µM.

Question: What about the TGI [8] of the same compound?
Answer: Its TGI is over 100 µM.

Question: And the TGI [9]?
Answer: Its TGI is over 100 µM.

Question: Which results are given for `CC(=O)OC[C@H]1O[C@@H](O[C@H]2[C@H](OC(C)=O)C=CO[C@@H]2COC(C)=O)C(OC(C)=O)[C@H]2OC(C)(C)O[C@H]21` (some centres undefined)?
Answer: TGI [1]: > 100 µM; TGI [2]: > 100 µM; TGI [3]: > 100 µM; TGI [4]: > 100 µM; TGI [5]: > 100 µM; TGI [6]: > 100 µM; TGI [7]: > 100 µM; TGI [8]: > 100 µM; TGI [9]: > 100 µM

Question: What does the source list for `Cc1ccc(C(=O)OC[C@H]2CC[C@@H](n3cc(N(C)C4CCCCC4)c(=O)[nH]c3=O)O2)cc1`?
Answer: TGI [1]: > 100 µM; TGI [2]: > 100 µM; TGI [10]: 77.9 µM; TGI [3]: > 100 µM; TGI [11]: > 100 µM; TGI [4]: 98.5 µM; TGI [5]: > 100 µM; TGI [8]: 39.5 µM; TGI [9]: > 100 µM

Question: What does the source list for `COc1cc(-c2nc3cc(F)ccc3s2)ccc1O`?
Answer: TGI [1]: > 100 µM; TGI [2]: > 100 µM; TGI [10]: > 100 µM; TGI [3]: > 100 µM; TGI [11]: > 100 µM; TGI [4]: 66.3 µM; TGI [6]: 15.3 µM; TGI [8]: > 100 µM; TGI [9]: > 100 µM

Question: What does the source list for `CCCCCc1cc(OC(=O)c2c(O)cc(OC)cc2CCCCC)cc(O)c1C(=O)O`?
Answer: TGI [1]: 32.9 µM; TGI [2]: 60 µM; TGI [10]: 71.2 µM; TGI [3]: 36 µM; TGI [11]: 60.2 µM; TGI [7]: 31 µM; TGI [8]: 34.5 µM; TGI [9]: 35.6 µM

Question: What does the source list for `CSc1c(C(=O)Nc2ccccc2)c(N)nn1-c1ccccc1`?
Answer: TGI [1]: > 100 µM; TGI [2]: > 100 µM; TGI [10]: > 100 µM; TGI [3]: > 100 µM; TGI [11]: > 100 µM; TGI [4]: > 100 µM; TGI [5]: > 100 µM; TGI [6]: > 100 µM; TGI [8]: > 100 µM; TGI [9]: > 100 µM

Question: Which TGI [1] does the source give for `CC1OC(OCC2OC(Oc3c(-c4ccc(O)cc4)oc4cc(O)cc(O)c4c3=O)C(OC3OCC(O)(CO)C3O)C(O)C2O)C(O)C(O)C1O` (centres undefined) here?
Answer: The TGI was over 100 µM.

Question: What about the TGI [2] of the same compound?
Answer: Its TGI is over 100 µM.

Question: What about the TGI [10] of the same compound?
Answer: The TGI was over 100 µM.

Question: And the TGI [3]?
Answer: The TGI was over 100 µM.

Question: And the TGI [11]?
Answer: Its TGI is 38.7 µM.

Question: What about the TGI [4] of the same compound?
Answer: The TGI was over 100 µM.

Question: What about the TGI [7] of the same compound?
Answer: Its TGI is over 100 µM.

Question: And the TGI [8]?
Answer: The TGI was over 100 µM.

Question: And the TGI [9]?
Answer: Its TGI is over 100 µM.

Question: With `COc1ccc(CCn2cnc3ccccc32)cc1` as the compound, how does the TGI [2] read?
Answer: The TGI was over 100 µM.

Question: What about the TGI [10] of the same compound?
Answer: Its TGI is over 100 µM.

Question: What about the TGI [3] of the same compound?
Answer: Its TGI is over 100 µM.

Question: And the TGI [11]?
Answer: Its TGI is over 100 µM.

Question: And the TGI [4]?
Answer: Its TGI is over 100 µM.

Question: What about the TGI [5] of the same compound?
Answer: Its TGI is over 100 µM.

Question: And the TGI [7]?
Answer: Its TGI is over 100 µM.

Question: What about the TGI [8] of the same compound?
Answer: The TGI was over 100 µM.

Question: What about the TGI [9] of the same compound?
Answer: The TGI was over 100 µM.

Question: Which results are given for `CC(C)C[C@H](NC(=O)[C@H](Cc1cccc2ccccc12)NC(=O)N1CCOCC1)B(O)O`?
Answer: GI50 [1]: 0.000205 µM; TGI [1]: 0.00096 µM and < 0.0329 µM; GI50 [2]: 0.000339 µM; GI50 [10]: 0.000359 µM; TGI [10]: 0.00618 µM; TGI [3]: 0.00286 µM and 0.0115 µM; GI50 [4]: 0.00172 µM; TGI [4]: 0.00495 µM; GI50 [6]: 0.000817 µM; TGI [6]: 0.00275 µM; GI50 [7]: 0.000654 µM; TGI [7]: 0.00322 µM and < 0.0122 µM; GI50 [8]: 0.00482 µM and 0.015 µM; GI50 [9]: 0.00609 µM; TGI [9]: 0.267 µM

Question: Which TGI [1] does the source give for `Cc1cnc2c(C)ccc([N+](=O)[O-])c2c1NCCCN(C)C` here?
Answer: The TGI was over 100 µM.

Question: And the TGI [2]?
Answer: The TGI was over 100 µM.

Question: What about the TGI [10] of the same compound?
Answer: Its TGI is over 100 µM.

Question: And the TGI [3]?
Answer: The TGI was over 100 µM.

Question: What about the TGI [11] of the same compound?
Answer: Its TGI is over 100 µM.

Question: And the TGI [4]?
Answer: Its TGI is over 100 µM.

Question: And the TGI [8]?
Answer: Its TGI is over 100 µM.

Question: And the TGI [9]?
Answer: Its TGI is over 100 µM.

Question: What does the source list for `CC(=O)C(C(C)=O)=C1CCCC(O)O1` (centres undefined)?
Answer: TGI [1]: > 100 µM; TGI [2]: > 100 µM; TGI [10]: > 100 µM; TGI [3]: > 100 µM; TGI [11]: > 100 µM; TGI [4]: > 100 µM; TGI [5]: > 100 µM; TGI [6]: > 100 µM; TGI [8]: > 100 µM; TGI [9]: > 100 µM

Question: `CCc1cccc(C(C)C)c1NC(=O)C(=O)C(Cc1nc2ccccc2[nH]c1=O)C(=O)OC` (centres undefined) was tested. Which TGI [1] did it give?
Answer: Its TGI is over 100 µM.

Question: What about the TGI [2] of the same compound?
Answer: Its TGI is over 100 µM.

Question: What about the TGI [10] of the same compound?
Answer: The TGI was over 100 µM.

Question: And the TGI [11]?
Answer: Its TGI is over 100 µM.

Question: What about the TGI [4] of the same compound?
Answer: The TGI was over 100 µM.

Question: What about the TGI [7] of the same compound?
Answer: The TGI was over 100 µM.

Question: And the TGI [8]?
Answer: The TGI was over 100 µM.

Question: And the TGI [9]?
Answer: The TGI was over 100 µM.

Question: What does the source list for `COC1=CC(=O)c2ccccc2C1(CCC=C(C)C)C1=NC(C)(C)CO1` (centres undefined)?
Answer: TGI [1]: > 100 µM; TGI [2]: > 100 µM; TGI [10]: > 100 µM; TGI [3]: > 100 µM; TGI [11]: 62.9 µM; TGI [4]: > 100 µM; TGI [7]: > 100 µM; TGI [8]: > 100 µM; TGI [9]: > 100 µM

Question: Which TGI [1] does the source give for `O=c1c2ccccc2[nH]c(=S)n1-c1ccc(Br)cc1` here?
Answer: Its TGI is over 100 µM.

Question: And the TGI [2]?
Answer: The TGI was over 100 µM.

Question: And the TGI [10]?
Answer: Its TGI is over 100 µM.

Question: And the TGI [3]?
Answer: Its TGI is over 100 µM.

Question: What about the TGI [11] of the same compound?
Answer: The TGI was over 100 µM.

Question: And the TGI [4]?
Answer: The TGI was over 100 µM.

Question: And the TGI [7]?
Answer: The TGI was 70 µM.

Question: And the TGI [8]?
Answer: The TGI was over 100 µM.

Question: And the TGI [9]?
Answer: The TGI was over 100 µM.
